Values after ≈ are worked out from the molar mass of the structure shown.

A short description of data set [1]: in vitro. As to conditions: dog, MDCK-MDR1.
The nature of data set [2]: in vitro. As to conditions: dog, MDCK-MDR1. This is another data set of the same source.
A short description of data set [3]: physchem. The settings on record: buffer.
Data set [4] is described as follows: AUC (0 to infinity) in C57BL6 mouse brain at 10 mg/kg, po measured up to 24 hrs. Further details: route oral, dose 10 mg/kg, time <=24. Type of data set: ADME, organism-based. The settings on record: in vivo.
Data set [5] is described as follows: AUC (0 to t) in C57BL6 mouse plasma at 10 mg/kg, po measured up to 24 hrs. Type of data set: ADME, organism-based. Further details: route oral, dose 10 mg/kg, time <=24.
A short description of data set [6]: Cmax in C57BL6 mouse plasma at 10 mg/kg, po measured up to 24 hrs. It counts as ADME, organism-based. More on the design: route oral, dose 10 mg/kg, time <=24.
The nature of data set [7]: Tmax in C57BL6 mouse brain at 10 mg/kg, po measured up to 24 hrs. It counts as ADME, organism-based.
A short description of data set [8]: AUC (0 to infinity) in C57BL6 mouse plasma at 10 mg/kg, po measured up to 24 hrs. More on the design: route oral, dose 10 mg/kg, time <=24. Type of data set: ADME, organism-based.
The nature of data set [9]: Half life in C57BL6 mouse brain at 10 mg/kg, po measured up to 24 hrs. Type of data set: ADME, organism-based.
A short description of data set [10]: Unbound brain-to-plasma concentration ratio in C57BL6 mouse plasma at 10 mg/kg, po measured up to 24 hrs. The settings on record: brain and plasma, read-out: K(p,uu,brain). Type of data set: ADME, organism-based.
A short description of data set [11]: Cmax in C57BL6 mouse brain at 10 mg/kg, po measured up to 24 hrs. It counts as ADME, organism-based. Further details: route oral, dose 10 mg/kg, time <=24.
Data set [12] in a line: AUC (0 to t) in C57BL6 mouse brain at 10 mg/kg, po measured up to 24 hrs. Type of data set: ADME, organism-based. The settings on record: in vivo.
The nature of data set [13]: physchem. The settings on record: buffer, pH 7.4.
Data set [14] can be described thus: Tmax in C57BL6 mouse plasma at 10 mg/kg, po measured up to 24 hrs. Type of data set: ADME, organism-based.
A short description of data set [15]: Half life in C57BL6 mouse plasma at 10 mg/kg, po measured up to 24 hrs. Type of data set: ADME, organism-based.

`Oc1nnc(-c2ccc(Cl)c(C(F)(F)F)c2)s1` returned a Papp A→B in the data set “in vitro [1]” of 45 ×10⁻⁶ cm/s. Further, the Papp B→A in the data set “in vitro [2]” came to 70 ×10⁻⁶ cm/s. The compound further yielded a solubility in the data set “physchem [3]” of 22 µM (≈ 6.17 µg/mL).
For `Oc1nnc(-c2ccc(Cl)c(C(F)(F)F)c2)o1`, the AUC in data set [4] amounted to 9910 ng·h/g. Besides, in [5], the AUC(0-t) at 24 h was determined as 50400 ng·h/mL. Further, the Cmax in data set [6] was 16600 ng/mL; in data set [11] it was 2990 ng/g. Also, the Tmax is 0.17 h in [7] and 0.5 h in [14]. Further, the AUC(0-inf) in [8] came out at 63100 ng·h/mL. Further, the Papp A→B in “in vitro [1]” came out at 34 ×10⁻⁶ cm/s. Besides, the half-life in data set [9] is 2.3 h; in data set [15], 3.7 h. The compound also showed a basolateral-to-apical permeability (Papp B→A) in the data set “in vitro [2]” of 55 ×10⁻⁶ cm/s. Further, the Kp uu at 24 h in data set [10] worked out at 0.025. Moreover, in “physchem [3]”, the solubility worked out at 710 µM (≈ 188 µg/mL). Moreover, the AUCt in [12] stood at 8870 ng·h/g. In addition, in the data set “physchem [13]”, the logD is 2.6.

Broadly, the Papp A→B is the apparent permeability from the apical to the basolateral side of a cell layer. A low value points to slow passage. One may read the Papp B→A as the apparent permeability from the basolateral to the apical side of a cell layer. As a reminder, the solubility is the concentration that dissolves in the medium under given conditions. For orientation: AUC(0-t) means exposure summed from dosing to a finite time, without extrapolation to infinity. In general, Cmax refers to the maximum level reached in the sampled fluid or tissue. A word on the Tmax: it is the time at which the peak concentration occurs. Broadly, the AUC(0-inf) is total exposure, with the tail of the curve extrapolated. Read a high AUC(0-inf) as high exposure. By half-life is commonly meant how long it takes for the measured level to halve. The low end stands for rapid decline, the high end for slow decline. A word on the logD: it is the decadic logarithm of the distribution of all forms, ionised or not, between an organic phase and buffer at a given pH. Read a low logD as lower lipophilicity.

Values taken from ChEMBL document CHEMBL4699601, “5-Phenyl-1,3,4-oxadiazol-2(3H)-ones Are Potent Inhibitors of Notum Carboxylesterase Activity Identified by the Optimization of a Crystallographic Fragment Screening Hit” (J Med Chem, 2020).
